Experiment [1] concerns Aβtotal. In words: In vivo efficacy Method 2: brain soluble Aβtotal by ELISA. More on the design: species or system mouse. Particulars: Table 4b, single oral dose, overnight fasted non-transgenic animals, sacrificed after 4 h, soluble fraction of brain homogenates. The text has this: (§1) To determine whether acute administration of an Aβ42 lowering agent would reduce Aβ42 levels in vivo, non-transgenic rodents, e.g. mice or rats were used. Animals treated with the Aβ42 lowering agent were examined and compared to those untreated or treated with vehicle and brain levels of soluble Aβ42 and total Aβ were quantitated by standard techniques, for example, using ELISA. Treatment periods varied from hours (h) to days and were adjusted based on the results of the Aβ42 lowering once a time course of onset of effect could be established.
(§2) A typical protocol for measuring Aβ42 lowering in vivo is shown but it is only one of many variations that could be used to optimize the levels of detectable Aβ. For example, Aβ42 lowering compounds were formulated in 20% of Captisol® (a sulfobutyl ether of β-cyclodextrin) in water or 20% hydroxypropyl β cyclodextrin. The Aβ42 lowering agents were administered as a single oral dose or by any acceptable route of administration to overnight fasted animals. After 4 h, the animals were sacrificed and Aβ42 levels were analysed.
(§3) Blood was collected by decapitation and exsanguinations in EDTA-treated collection tubes. Blood was centrifuged at 1900 g for 10 minutes (min) at 4° C. and the plasma recovered and flash frozen for later analysis. The brain was removed from the cranium and hindbrain. The cerebellum was removed and the left and right hemisphere were separated. The left hemisphere was stored at −18° C. for quantitative analysis of test compound levels. The right hemisphere was rinsed with phosphate-buffered saline (PBS) buffer and immediately frozen on dry ice and stored at −80° C. until homogenization for biochemical assays.
(§4) Mouse brains from non-transgenic animals were resuspended in 8 volumes of 0.4% DEA (diethylamine)/50 mM NaCl containing protease inhibitors (Roche-11873580001 or 04693159001) per gram of tissue, e.g. for 0.158 g brain, add 1.264 ml of 0.4% DEA. All samples were homogenized in the FastPrep-24 system (MP Biomedicals) using lysing matrix D (MPBio #6913-100) at 6 m/s for 20 seconds. Homogenates were centrifuged at 221.300×g for 50 min. The resulting high speed supernatants were then transferred to fresh eppendorf tubes. Nine parts of supernatant were neutralized with 1 part 0.5 M Tris-HCl pH 6.8 and used to quantify Aβtotal and Aβ42.
(§5) To quantify the amount of Aβtotal and Aβ42 in the soluble fraction of the brain homogenates, Enzyme-Linked-Immunosorbent-Assays were used . Briefly, the standards (a dilution of synthetic Aβ1-40 and Aβ1-42, Bachem) were prepared in 1.5 ml Eppendorf tube in Ultraculture, with final concentrations ranging from 10000 to 0.3 pg/ml. The samples and standards were co-incubated with HRPO-labelled N-terminal antibody for Aβ42 detection and with the biotinylated mid-domain antibody 4G8 for Aβtotal detection. 50 μl of conjugate/sample or conjugate/standards mixtures were then added to the antibody-coated plate (the capture antibodies selectively recognize the C-terminal end of Aβ42, antibody JRF/cAβ42/26, for Aβ42 detection and the N-terminus of Aβ, antibody JRF/rAβ/2, for Aβtotal detection). The plate was allowed to incubate overnight at 4° C. in order to allow formation of the antibody-amyloid complex. Following this incubation and subsequent wash steps the ELISA for Aβ42 quantification was finished by addition of Quanta Blu fluorogenic peroxidase substrate according to the manufacturer's instructions (Pierce Corp., Rockford, Ill.). A reading was performed after 10 to 15 min (excitation 320/emission 420).
For Aβtotal detection, a Streptavidine-Peroxidase-Conjugate was added, followed 60 min later by an additional wash step and addition of Quanta Blu fluorogenic peroxidase substrate according to the manufacturer's instructions (Pierce Corp., Rockford, Ill.). A reading was performed after 10 to 15 min (excitation 320 nm/emission 420 nm).

For experiment [2], the system named is Aβ42. In words: In vivo efficacy Method 2: brain soluble Aβ42 by ELISA. On the set-up: species or system mouse. The settings on record: Table 4b, single oral dose, overnight fasted non-transgenic animals, sacrificed after 4 h, soluble fraction of brain homogenates.
Description: as §1, §2, §3, §4, §5
In this model at least 20% Aβ42 lowering compared to untreated animals would be advantageous.
For orientation: An ELISA detects its analyte on a solid surface through an enzyme-linked reagent.

The test system of experiment [3] is Aβ42. The experiment is described as follows: Screening for γ-secretase-modulating activity, Method 2: Aβ42 Alphalisa on SKNBE2 cell supernatant. Type of experiment: cell-based. The settings on record: Method 2, Table 3c, SKNBE2 cells carrying APP 695 wild type, overnight incubation. Summed up:
(§6)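 SKNBE2 cells expressing wild-type APP695, plated at 10^4 cells/well with compound at several concentrations and incubated overnight at 37° C. Aβ42 (C-terminal capture, N-terminal biotinylated detection) and Aβtotal (N-terminal/4G8 pair) measured in supernatant by AlphaLISA. IC50 from 4-parameter fit of percent of compound-free control.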
For orientation: In Alpha technology, singlet oxygen from a donor bead excites a nearby acceptor bead.

Experiment [4] concerns Aβtotal. The experiment is described as follows: Screening for γ-secretase-modulating activity, Method 2: Aβtotal Alphalisa on SKNBE2 cell supernatant. Type of experiment: cell-based. The settings on record: Method 2, Table 3c, SKNBE2 cells carrying APP 695 wild type, overnight incubation. Summed up: as §6

What is called IC50 is the midpoint of a concentration-inhibition curve. High values mean a need for much substance, low ones inhibition by little substance. Take `Cc1cn(-c2ccc(Nc3nc(C)cc4c3nc(-c3cccc(N(C)C)c3)n4C)cc2F)cn1` [Compound 142]: the “Aβtotal (% Ctrl) _Mean” value in the experiment with Aβtotal [1] is 98 % Ctrl. In addition, the “Aβ42 (% Ctrl) _Mean” value in the experiment with Aβ42 [2] was 73 % Ctrl. Besides, the results for the IC50 in the experiment with Aβ42 [3] and in the experiment on Aβtotal [4] were 15 nM and 9330 nM, respectively.
The matching figures for `COc1cc(Nc2ccc(-n3cnc(C)c3)c(OC)n2)c2nc(-c3ccc(F)cc3)n(C)c2c1` [Compound 160]: 78 % Ctrl, 84 % Ctrl, 5 nM and greater than 10000 nM.
In the case of `COc1nc(Nc2cccc3c2nc(-c2ccc(F)cc2)n3C(C)C)ccc1-n1cnc(C)n1` [Compound 162], the “Aβtotal (% Ctrl) _Mean” value in the experiment on Aβtotal [1] stood at 97 % Ctrl. For the same molecule, the “Aβ42 (% Ctrl) _Mean” value in the experiment with Aβ42 [2] came out at 79 % Ctrl. In addition, the IC50 in the experiment on Aβ42 [3] amounted to 5 nM; in the experiment with Aβtotal [4] it was 5620 nM.
`COc1nc(Nc2cccc3c2nc(-c2cc(F)cc(F)c2)n3C)ccc1-n1cnc(C)c1.Cl.Cl.O` [Compound 165]: the “Aβtotal (% Ctrl) _Mean” value in the experiment on Aβtotal [1] came to 85 % Ctrl. In the experiment with Aβ42 [2], the “Aβ42 (% Ctrl) _Mean” value stood at 44 % Ctrl. Also, the IC50 came to 6 nM in the experiment on Aβ42 [3] and 3720 nM in the experiment with Aβtotal [4].
On to `COc1nc(Nc2cccc3c2nc(-c2cccc(C(F)(F)F)c2)n3C)ccc1-n1cnc(C)c1` [Compound 167], for which, in the experiment with Aβtotal [1], the “Aβtotal (% Ctrl) _Mean” value turned out to be 84 % Ctrl. Also, in the experiment with Aβ42 [2], the “Aβ42 (% Ctrl) _Mean” value turned out to be 46 % Ctrl. The IC50 in the experiment with Aβ42 [3] was determined as 7 nM; with Aβtotal [4] it was 5250 nM.
On to `COc1nc(Nc2cccc3c2nc(-c2cccc(NC(C)=O)c2)n3C)ccc1-n1cnc(C)c1` [Compound 174], for which the “Aβtotal (% Ctrl) _Mean” value in the experiment with Aβtotal [1] was 104 % Ctrl. Moreover, the “Aβ42 (% Ctrl) _Mean” value in the experiment with Aβ42 [2] is recorded as 90 % Ctrl. In addition, the IC50 in the experiment with Aβ42 [3] (Homo sapiens) turned out to be 38 nM; in the experiment with Aβtotal [4] (Homo sapiens), 9550 nM.
For `COc1cc(-c2nc3c(Nc4ccc(-n5cnc(C)c5)c(OC)n4)cccc3n2C)ccc1F` [Compound 184] the same measures were 88 % Ctrl, 31 % Ctrl, 13 nM and greater than 10000 nM.
Consider `COc1cc(OC)cc(-c2nc3c(Nc4ccc(-n5cnc(C)c5)c(OC)n4)cccc3n2C)c1.Cl.Cl.O` [Compound 186], for which, in the experiment on Aβtotal [1], the “Aβtotal (% Ctrl) _Mean” value came to 88 % Ctrl. Moreover, the “Aβ42 (% Ctrl) _Mean” value in the experiment with Aβ42 [2] was determined as 38 % Ctrl. The IC50 in the experiment on Aβ42 [3] is 12 nM; in the experiment with Aβtotal [4] it was 8320 nM.
In the case of `COc1nc(Nc2cccc3c2nc(-c2cc(C(F)(F)F)ccc2F)n3C)ccc1-n1cnc(C)c1` [Compound 187], the “Aβtotal (% Ctrl) _Mean” value in the experiment with Aβtotal [1] is 96 % Ctrl. Moreover, the “Aβ42 (% Ctrl) _Mean” value in the experiment on Aβ42 [2] is 75 % Ctrl. Also, the values for the IC50 with Aβ42 [3] (Homo sapiens) and in the experiment with Aβtotal [4] (Homo sapiens) were 36 nM and 7240 nM, respectively.
For `COc1nc(Nc2cccc3c2nc(-c2cccc(OC(F)(F)F)c2)n3C)ccc1-n1cnc(C)c1` [Compound 189], the “Aβtotal (% Ctrl) _Mean” value with Aβtotal [1] came to 95 % Ctrl. For the same molecule, in the experiment on Aβ42 [2], the “Aβ42 (% Ctrl) _Mean” value is reported as 48 % Ctrl. Further, the IC50 in the experiment on Aβ42 [3] was found to be 17 nM; in the experiment on Aβtotal [4], 8320 nM.
For `COc1cc(Nc2ccc(-n3cnc(C)c3)c(OC)n2)c2nc(-c3ccc(F)cc3)n(C)c2n1` [Compound 202] the same measures were 102 % Ctrl, 82 % Ctrl, 5 nM and greater than 10000 nM.

These data come from patent US8772504B2, “Substituted benzoxazole, benzimidazole, oxazolopyridine and imidazopyridine derivatives as gamma secretase modulators” (Janssen Pharmaceuticals, Inc., priority 2009, dated 2014).
